Key:
[1] = target: T1, bovine alkaline phosphatase (CIP) (Bos taurus, UniProt P19111); assay: Evaluation of CIP-protective activity under freeze-dried condition; format: biochemical; settings: for CIP activity after freeze-drying: freeze-dried with 3% additive
T1 construct: purchased New England Biolabs
Description: Test samples 1 to 12 containing bovine alkaline phosphatase (CIP) were prepared as follows and protein-protective activity of various kinds of added sugar under freeze-dried condition was evaluated.
After bovine alkaline phosphatase (10 units/μL, manufactured by New England Biolabs) was diluted to 1/40 with TBS (manufactured by Takara Bio Inc.), it was subjected to dialysis for 2 hours at 4° C. within TBS of an amount 1,000 times the diluted enzyme solution to remove glycerol. 40 μL of TBS containing 2% trehalose (TRH) was added to and mixed with 40 μL of the enzyme solution after dialysis and the mixture was frozen at −80° C. for 10 minutes. It was then freeze-dried for 20 hours with a freeze dryer (FLEXI-DRY, manufactured by FTS systems INC., Warminster) connected to a vacuum pump (P65D, manufactured by PHIL Sato Vac INC.), preparing freeze-dried product of enzyme with 1% TRH.
Freeze-dried product of enzyme with 3% TRH was prepared in a similar manner to the preparation method of test sample 4 except that the final concentration of trehalose was changed to 3% in the preparation method of test sample 4. […]
Freeze-dried product of enzyme with 3% 4TA was prepared in a similar manner to the preparation method of test sample 5 except that trehalose was changed to 4-trehalosamine (4TA) in the preparation method of test sample 5. […]
Freeze-dried product of enzyme with 3% MLT was prepared in a similar manner to the preparation method of test sample 5 except that trehalose was changed to maltose (MLT) in the preparation method of test sample 5. […]
(§1) Freeze-dried product of enzyme with 3% SCR was prepared in a similar manner to the preparation method of test sample 5 except that trehalose was changed to sucrose (SCR) in the preparation method of test sample 5.
(§2) Freeze-dried product of enzyme with 3% GOL was prepared in a similar manner to the preparation method of test sample 5 except that trehalose was changed to glycerol (GOL) in the preparation method of test sample 5.
80 μL of water was added to each of the freeze-dried products of test samples 3 to 12 and the mixture was diluted to 1/100 with TBS. Test samples 1 and 2 were diluted to 1/100 with TBS. 10 μL of each of the diluted test samples 1 to 12 and 20 μL of 0.1 M p-nitrophenylphosphate (pNPP)-TBS solution were added to 70 μL of TBS, and enzyme reaction was left to take place at 37° C. for 1 hour. After the reaction, absorbance at 420 nm was measured with a microplate reader (Cytation5, manufactured by Bio Tek Instruments) and CIP activity was measured by the amount of p-nitrophenol as enzyme reaction product (n=3, mean±S.D.).

[2] = target: T2, yeast alcohol dehydrogenase (ADH) (Saccharomyces cerevisiae, UniProt P00330); assay: Evaluation of ADH-protective activity under freeze-dried condition; format: biochemical; settings: for ADH activity after freeze-drying: freeze-dried with 1% or 3% sugar, GOL 3%
T2 construct: purchased Oriental Yeast Co., Ltd
T2 sequence (P00330 1-348): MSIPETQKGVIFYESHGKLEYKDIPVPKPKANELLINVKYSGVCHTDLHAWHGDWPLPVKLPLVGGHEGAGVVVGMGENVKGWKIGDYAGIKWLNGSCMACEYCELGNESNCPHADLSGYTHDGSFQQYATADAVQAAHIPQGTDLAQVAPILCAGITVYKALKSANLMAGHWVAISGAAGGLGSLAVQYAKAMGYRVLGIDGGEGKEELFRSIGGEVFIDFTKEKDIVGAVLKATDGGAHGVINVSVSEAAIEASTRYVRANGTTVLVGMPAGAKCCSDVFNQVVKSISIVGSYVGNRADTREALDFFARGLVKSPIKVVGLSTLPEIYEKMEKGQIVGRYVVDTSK
Description: Test samples 1 to 12 containing yeast alcohol dehydrogenase (ADH) were prepared as follows and protein-protective activity of various kinds of added sugar under freeze-dried condition was evaluated.
Yeast alcohol dehydrogenase (manufactured by Oriental Yeast Co., Ltd.) was dissolved in water at 1,000 units/mL and then diluted to 6 units/mL with TBS (manufactured by Takara Bio Inc.). 50 μL of TBS containing 2% trehalose (TRH) was added to and mixed with 50 μL of this enzyme solution and the mixture was frozen at −80° C. for 10 minutes. It was then freeze-dried for 20 hours with a freeze dryer (FLEXI-DRY, manufactured by FTS systems INC., Warminster) connected to a vacuum pump (P65D, manufactured by PHIL Sato Vac INC.), preparing freeze-dried product of enzyme with 1% TRH.
Freeze-dried product of enzyme with 3% TRH was prepared in a similar manner to the preparation method of test sample 4 except that the final concentration of trehalose was changed to 3% in the preparation method of test sample 4.
Freeze-dried product of enzyme with 1% 4TA was prepared in a similar manner to the preparation method of test sample 4 except that trehalose was changed to 4-trehalosamine (4TA) in the preparation method of test sample 4.
Freeze-dried product of enzyme with 3% 4TA was prepared in a similar manner to the preparation method of test sample 5 except that trehalose was changed to 4-trehalosamine (4TA) in the preparation method of test sample 5.
Freeze-dried product of enzyme with 1% MLT was prepared in a similar manner to the preparation method of test sample 4 except that trehalose was changed to maltose (MLT) in the preparation method of test sample 4.
Freeze-dried product of enzyme with 3% MLT was prepared in a similar manner to the preparation method of test sample 5 except that trehalose was changed to maltose (MLT) in the preparation method of test sample 5.
Freeze-dried product of enzyme with 1% SCR was prepared in a similar manner to the preparation method of test sample 4 except that trehalose was changed to sucrose (SCR) in the preparation method of test sample 4.
as §1, §2
The enzyme solution from test sample 1, the freeze-thaw product of enzyme from test sample 2, and the freeze-dried products from test samples 3 to 12 were each diluted to 0.012 units/mL with TBS. 0.5 mM β-NAD^+ (manufactured by Oriental Yeast Co., Ltd.) and 0.62 M ethanol were added, and enzyme reaction was left to take place at room temperature for 1 hour. After the reaction, absorbance at 340 nm was measured with a microplate reader (Cytation5, manufactured by Bio Tek Instruments) (n=3, mean±S.D.). The value of this absorbance at 340 nm was divided by the value of absorbance at 340 nm for the enzyme solution of test sample 1 (control) to determine ADH activity.

T1 sequence (P19111 20-506): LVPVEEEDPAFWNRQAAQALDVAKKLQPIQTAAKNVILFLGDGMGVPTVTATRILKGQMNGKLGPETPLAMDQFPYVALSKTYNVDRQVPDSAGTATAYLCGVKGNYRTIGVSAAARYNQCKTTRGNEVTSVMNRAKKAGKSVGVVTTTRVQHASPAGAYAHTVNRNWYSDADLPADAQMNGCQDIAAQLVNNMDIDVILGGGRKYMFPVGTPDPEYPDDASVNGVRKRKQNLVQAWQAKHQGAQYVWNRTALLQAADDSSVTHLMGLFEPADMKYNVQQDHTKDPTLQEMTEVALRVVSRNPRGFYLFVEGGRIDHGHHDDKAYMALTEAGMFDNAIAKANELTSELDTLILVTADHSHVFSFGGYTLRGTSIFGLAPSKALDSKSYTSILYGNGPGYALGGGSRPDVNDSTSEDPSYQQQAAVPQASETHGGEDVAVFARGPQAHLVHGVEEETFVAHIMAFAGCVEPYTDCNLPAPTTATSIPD

| CIP activity after freeze-drying [1] | ADH activity after freeze-drying [2] | Compound | CIP protection effect compared to other sugars ([1]; freeze-dried) | ADH protection effect compared to other sugars ([2]; freeze-dried) |
| --- | --- | --- | --- | --- |
| good activity was maintained | good activity was maintained | OC[C@H]1O[C@H](O[C@H]2[C@H](O)[C@@H](O)C(O)O[C@@H]2CO)[C@H](O)[C@@H](O)[C@@H]1O (mixture of isomers) [maltose] | – | – |
| enzyme activity significantly dropped | enzyme activity significantly dropped | OCC(O)CO [GOL, glycerol] | – | – |
| good activity was maintained | good activity was maintained | OC[C@H]1O[C@@](CO)(O[C@H]2O[C@H](CO)[C@@H](O)[C@H](O)[C@H]2O)[C@@H](O)[C@@H]1O [sucrose] | – | – |

| Compound | CIP activity after freeze-drying [1] | ADH activity after freeze-drying [2] | CIP protection effect compared to other sugars ([1]; freeze-dried) | ADH protection effect compared to other sugars ([2]; freeze-dried) |
| --- | --- | --- | --- | --- |
| N[C@H]1[C@H](O)[C@@H](O)[C@@H](O[C@H]2O[C@H](CO)[C@@H](O)[C@H](O)[C@H]2O)O[C@@H]1CO [4-trehalosamine] | good activity was maintained | good activity was maintained | high compared to the other sugars | high compared to the other sugars |
| OC[C@H]1O[C@H](O[C@H]2O[C@H](CO)[C@@H](O)[C@H](O)[C@H]2O)[C@H](O)[C@@H](O)[C@@H]1O [trehalose, reference compound] | good activity was maintained | good activity was maintained | – | – |
